{
  "source": "patent US20030096237A1",
  "about": "“Determination of the ability of patients to respond to a tumor treatment” (priority 2000, published 2003)",
  "system": "CNCM I-2546",
  "assay": "oligonucleotide array analysis of IFN-α modulated gene expression",
  "format": "cell-based, human",
  "method": "All these cell lines were cultured in RPMI medium supplemented with 10% FCS, glutamine (2 mM), sodium pyruvate (1 mM), non-essential amino acids and HEPES buffer (10 mM) (all from GIBCO Life Sciences, Paisley, UK). When confluent, the cells were passaged by trypsinization.\nCultured melanoma cells were harvested by scraping and total cellular RNA was extracted. 10 μg from each sample were used directly as templates for cDNA synthesis using a commercial kit (Roche Molecular Biochemicals, Rotkreuz, Switzerland). The T7 promoter sequence incorporated into the cDNA synthesis primer allowed template amplification and biotin labeling by in vitro transcription using a commercial kit (Affymetrix, Santa Clara, Calif.). After alkaline heat fragmentation […] was hybridised to the array (Affymetrix, Santa Clara, Calif.) and all subsequent steps were performed following standard procedures as supplied with the arrays. Raw data were collected with a confocal laser scanner (Hewlett Packard, Palo Alto, Calif.) using GeneChip software v3.1 (Affymetrix, Santa Clara, Calif.).\nRaw data were normalized based on the total chip signal obtained upon hybridisation of ME15 cell line cDNA. This array was selected because: i) the 5′/3′ intensity ratio of control genes was smaller than 3; ii)>25% of the genes are called “present” by Genechip; iii) the image appearance is homogeneous with low background and no sign of mechanical chip damage.\nThe normalized average difference (nAD) between the signals of the perfect and of the mismatch probesets for each gene was used as the expression level of a given gene. At least one nAD value in a pairwise comparison of data has to exceed 50 to be included. Based on nAD, change factors related to IFN-α exposure were also calculated. Negative nAD values were set to 20 in order to avoid the calculation of artificially high modifications. In order to exclude artefacts, only genes with robust change factors, greater than 2-fold, were included in the analysis. […] Genes were clustered according to their mode of regulation.\nTotal cellular RNA was extracted from the sensitive and resistant melanoma cell lines identified above, reverse transcribed and processed for hybridization to an oligonucleotide array (Hu6800FL, PN 900183) containing probe sets derived from 7000 full-length human genes. Expression levels for each gene were calculated as normalized average difference (nAD, see materials and methods).\nPatterns of genes expressed in IFN-α sensitive and resistant melanoma cell lines were investigated upon 48 hour culture in the presence of IFN-α. CNCM I-2546 and CNCM I-2545 were studied in detail.\nIn Table 2 below, CNCM I-2546 and CNCM I-2545 cultured for 48 hours in the absence or in the presence of 100 U/ml IFN-α were used to assay cytokine modulated gene expression as matched with data obtained in fibrosarcoma cells. This analysis yielded six clusters of genes. […] Data are presented as average difference of signal intensity between match and mismatch probesets.\nIn Table 3 below, CNCM I-2546 and CNCM I-2545 cell lines cultured for 48 hours in the absence or in the presence of 100 U/ml IFN-α were used to identify novel cytokine induced genes whose expression was not found to be modulated in fibrosarcoma cells. Cluster 1 includes genes inducible in the CNCM I-2546 sensitive but not in the CNCM I-2545 resistant cell line. Cluster 2 comprises genes inducible in both lines. Data are presented as average difference of signal intensity between match and mismatch probesets.",
  "key": {"[1]": {"conditions": "CNCM I-2546, IFN-α 100 U/ml 48 hours"}},
  "data": [
    {"substance": "IFN-α", "values": [
      {"measurement": "change factor (CF) D28137 bst-2", "setting": "[1]", "value": 9.89},
      {"measurement": "change factor (CF) D32050 alanyl-trna synthetase", "setting": "[1]", "value": 19.33},
      {"measurement": "change factor (CF) D49824 hla-b null allele", "setting": "[1]", "value": 5.42},
      {"measurement": "change factor (CF) D50914 EST", "setting": "[1]", "value": 2.26},
      {"measurement": "change factor (CF) D78132 rheb gene, ras-related gtp binding protein gene", "setting": "[1]", "value": 1.58},
      {"measurement": "change factor (CF) HG658 major histocompatibility complex, class 1 c", "setting": "[1]", "value": 9.85},
      {"measurement": "change factor (CF) HG1612 macmarcks", "setting": "[1]", "value": 2.59},
      {"measurement": "change factor (CF) HG2917 major histocompatibility complex, class i, e", "setting": "[1]", "value": 4.53},
      {"measurement": "change factor (CF) J00105 beta-2 microglobulin gene", "setting": "[1]", "value": 4.86},
      {"measurement": "change factor (CF) J00212 leukocyte interferon (ifn-alpha)", "setting": "[1]", "value": "−1.82"},
      {"measurement": "change factor (CF) J03909 gamma-interferon-inducible protein (ip-30)", "setting": "[1]", "value": 1.85},
      {"measurement": "change factor (CF) J04164 interferon-inducible protein 27-sep", "setting": "[1]", "value": 102.3},
      {"measurement": "change factor (CF) J04182 lysosomal membrane glycoprotein-1 (lamp1)", "setting": "[1]", "value": 1.69},
      {"measurement": "change factor (CF) J04444 cytochrome c-1 gene", "setting": "[1]", "value": 3.16},
      {"measurement": "change factor (CF) K01900 lymphocyte interferon alpha type 201", "setting": "[1]", "value": 0.55},
      {"measurement": "change factor (CF) K03515 neuroleukin", "setting": "[1]", "value": 3.37},
      {"measurement": "change factor (CF) L07633 interferon-gamma", "setting": "[1]", "value": 1.52},
      {"measurement": "change factor (CF) L13210 mac-2 binding protein", "setting": "[1]", "value": 3.54},
      {"measurement": "change factor (CF) L35249 vacuolar h + -atpase mr 56,000 subunit (ho57)", "setting": "[1]", "value": 1.47},
      {"measurement": "change factor (CF) L37043 casein kinase i epsilon", "setting": "[1]", "value": 21.05},
      {"measurement": "change factor (CF) L40387 thyroid receptor interactor (trip14)", "setting": "[1]", "value": 3.25},
      {"measurement": "change factor (CF) L42243 ifnar2 gene (interferon receptor)", "setting": "[1]", "value": "−1.3"},
      {"measurement": "change factor (CF) M13755 interferon-induced 17-kda/15-kda protein", "setting": "[1]", "value": 34.8},
      {"measurement": "change factor (CF) M19650 2′,3′-cyclic nucleotide 3prime-phosphodiesterase", "setting": "[1]", "value": 3.89},
      {"measurement": "change factor (CF) M30818 interferon-induced cellular resistance mediator protein", "setting": "[1]", "value": "−3.88"},
      {"measurement": "change factor (CF) M31013 nonmuscle myosin heavy chain (nmhc)", "setting": "[1]", "value": 2.34},
      {"measurement": "change factor (CF) M34338 spermidine synthase", "setting": "[1]", "value": 2.29},
      {"measurement": "change factor (CF) M60784 ul snrnp-specific protein", "setting": "[1]", "value": 8},
      {"measurement": "change factor (CF) M65028 heterogeneous nuclear ribonucleoprotein a/b", "setting": "[1]", "value": 1.13},
      {"measurement": "change factor (CF) M79462 pml-1", "setting": "[1]", "value": "−1.15"},
      {"measurement": "change factor (CF) M92642 alpha-1 type xvi collagen (col16a1)", "setting": "[1]", "value": 0},
      {"measurement": "change factor (CF) M94880 mhc class i (hla-a*8001)", "setting": "[1]", "value": 3.61},
      {"measurement": "change factor (CF) M97935 transcription factor isgf-3", "setting": "[1]", "value": 13.8},
      {"measurement": "change factor (CF) M98343 amplaxin (ems1)", "setting": "[1]", "value": 6.05},
      {"measurement": "change factor (CF) S81914 iex-1 = radiation-inducible immediate-early gene", "setting": "[1]", "value": 9.06},
      {"measurement": "change factor (CF) U01824 glutamate/aspartate transporter", "setting": "[1]", "value": 3.55},
      {"measurement": "change factor (CF) U09579 melanoma differentiation associated (mda-6)", "setting": "[1]", "value": 3.35},
      {"measurement": "change factor (CF) U18009 chromosome 17q21 clone lf113", "setting": "[1]", "value": 2.93},
      {"measurement": "change factor (CF) U18018 ela enhancer binding protein (ela-f)", "setting": "[1]", "value": 2.18},
      {"measurement": "change factor (CF) U22970 16-jun gene, interferon-inducible peptide (6-16)", "setting": "[1]", "value": 53.95},
      {"measurement": "change factor (CF) U41515 dss1", "setting": "[1]", "value": "−1.04"},
      {"measurement": "change factor (CF) U47025 fetal brain glycogen phosphorylase b", "setting": "[1]", "value": 3.79},
      {"measurement": "change factor (CF) U50327 protein kinase c substrate 80k-h gene (prkcsh)", "setting": "[1]", "value": 2.9},
      {"measurement": "change factor (CF) U50648 interferon-inducible rna-dependent protein kinase (pkr)", "setting": "[1]", "value": 2.55},
      {"measurement": "change factor (CF) U51127 interferon regulatory factor 5", "setting": "[1]", "value": 4.8},
      {"measurement": "change factor (CF) U52513 rig-g", "setting": "[1]", "value": 0.96},
      {"measurement": "change factor (CF) U53830 interferon regulatory factor 7a", "setting": "[1]", "value": 10.85},
      {"measurement": "change factor (CF) U61263 acetolactate synthase homolog", "setting": "[1]", "value": 2.09},
      {"measurement": "change factor (CF) U65579 mitochondrial nadh dehydrogenase-ubiquinone", "setting": "[1]", "value": 2.43},
      {"measurement": "change factor (CF) U65932 extracellular matrix protein 1 (ecm1)", "setting": "[1]", "value": 2.02},
      {"measurement": "change factor (CF) U69126 fuse binding protein 2 (fbp2)", "setting": "[1]", "value": 2.92},
      {"measurement": "change factor (CF) U70063 human acid ceramidase", "setting": "[1]", "value": 1.57},
      {"measurement": "change factor (CF) U72206 guanine nucleotide regulatory factor (lfp40)", "setting": "[1]", "value": 3.06},
      {"measurement": "change factor (CF) U72882 interferon-induced leucine zipper protein (ifp35)", "setting": "[1]", "value": 24.1},
      {"measurement": "change factor (CF) U78525 human eukaryotic translation initiation factor (eif3)", "setting": "[1]", "value": 1.14},
      {"measurement": "change factor (CF) U91316 acyl-coa thioester hydrolase", "setting": "[1]", "value": 4.01},
      {"measurement": "change factor (CF) X04412 plasma gelsolin", "setting": "[1]", "value": 2.48},
      {"measurement": "change factor (CF) X07730 prostate specific antigen", "setting": "[1]", "value": 5.6},
      {"measurement": "change factor (CF) X15949 interferon regulatory factor-2 (irf-2)", "setting": "[1]", "value": "−2.35"},
      {"measurement": "change factor (CF) X57351 1-8d gene from interferon-inducible gene family", "setting": "[1]", "value": 113.8},
      {"measurement": "change factor (CF) X57522 ring4 cdna", "setting": "[1]", "value": 3.85},
      {"measurement": "change factor (CF) X67325 p27", "setting": "[1]", "value": 19.5},
      {"measurement": "change factor (CF) X70848 protein phosphatase 1, catalytic subunit", "setting": "[1]", "value": 2.03},
      {"measurement": "change factor (CF) X76538 mpv17", "setting": "[1]", "value": 3.06},
      {"measurement": "change factor (CF) X90846 mixed lineage kinase 2", "setting": "[1]", "value": "−1.46"},
      {"measurement": "change factor (CF) X95325 dna binding protein a variant", "setting": "[1]", "value": 5.47},
      {"measurement": "change factor (CF) X96401 rox protein", "setting": "[1]", "value": 3.21},
      {"measurement": "change factor (CF) Y00264 amyloid a4 precursor", "setting": "[1]", "value": 2.42},
      {"measurement": "change factor (CF) Z26491 gene catechol o-methyltransferase", "setting": "[1]", "value": 3.62},
      {"measurement": "change factor (CF) Z47055 farnesyl pyrophosphate synthetase like", "setting": "[1]", "value": 1.01},
      {"measurement": "change factor (CF) Z56281 interferon regulatory factor 3", "setting": "[1]", "value": 5.8},
      {"measurement": "nAD D28137 bst-2", "setting": "Table 3, CNCM I-2546 (+) IFN-α 100 U/ml 48 hours, (−) 28", "value": 305},
      {"measurement": "change factor (CF) D28137 bst-2", "setting": "Table 3, CNCM I-2546, IFN-α 100 U/ml 48 hours", "value": 9.89}
    ]}
  ]
}
